The source of these data is ChEMBL document CHEMBL1201862, “PubChem BioAssay data set” (2004).

Assay [1] deals with Beta-lactamase (Pseudomonas aeruginosa, UniProt Q79MP6).
The target of assay [2] is G-protein coupled receptor 35 (Homo sapiens, UniProt Q9HC97). Put plainly: GPR35 antagonists blocking zaprinast-driven arrestin recruitment, primary screen, imaging, U2OS, beta-arrestin-GFP, zaprinast agonist (AID 2058).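 Note: antagonist potency meaning inhibition of agonist-induced arrestin redistribution.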 The format is functional.
Sequence of G-protein coupled receptor 35 (Q9HC97 whole entry): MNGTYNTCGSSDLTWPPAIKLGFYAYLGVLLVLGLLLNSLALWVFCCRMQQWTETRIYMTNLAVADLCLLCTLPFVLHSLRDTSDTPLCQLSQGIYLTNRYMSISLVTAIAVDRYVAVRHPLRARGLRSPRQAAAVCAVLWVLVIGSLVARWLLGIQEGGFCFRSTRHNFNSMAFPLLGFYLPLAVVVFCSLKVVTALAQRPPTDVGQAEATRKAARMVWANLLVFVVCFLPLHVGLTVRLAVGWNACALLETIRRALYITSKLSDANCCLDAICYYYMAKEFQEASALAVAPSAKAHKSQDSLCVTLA
Assay [3] concerns the target T1, Insulin-degrading enzyme (Homo sapiens, UniProt P14735).
T1 sequence (P14735 whole entry): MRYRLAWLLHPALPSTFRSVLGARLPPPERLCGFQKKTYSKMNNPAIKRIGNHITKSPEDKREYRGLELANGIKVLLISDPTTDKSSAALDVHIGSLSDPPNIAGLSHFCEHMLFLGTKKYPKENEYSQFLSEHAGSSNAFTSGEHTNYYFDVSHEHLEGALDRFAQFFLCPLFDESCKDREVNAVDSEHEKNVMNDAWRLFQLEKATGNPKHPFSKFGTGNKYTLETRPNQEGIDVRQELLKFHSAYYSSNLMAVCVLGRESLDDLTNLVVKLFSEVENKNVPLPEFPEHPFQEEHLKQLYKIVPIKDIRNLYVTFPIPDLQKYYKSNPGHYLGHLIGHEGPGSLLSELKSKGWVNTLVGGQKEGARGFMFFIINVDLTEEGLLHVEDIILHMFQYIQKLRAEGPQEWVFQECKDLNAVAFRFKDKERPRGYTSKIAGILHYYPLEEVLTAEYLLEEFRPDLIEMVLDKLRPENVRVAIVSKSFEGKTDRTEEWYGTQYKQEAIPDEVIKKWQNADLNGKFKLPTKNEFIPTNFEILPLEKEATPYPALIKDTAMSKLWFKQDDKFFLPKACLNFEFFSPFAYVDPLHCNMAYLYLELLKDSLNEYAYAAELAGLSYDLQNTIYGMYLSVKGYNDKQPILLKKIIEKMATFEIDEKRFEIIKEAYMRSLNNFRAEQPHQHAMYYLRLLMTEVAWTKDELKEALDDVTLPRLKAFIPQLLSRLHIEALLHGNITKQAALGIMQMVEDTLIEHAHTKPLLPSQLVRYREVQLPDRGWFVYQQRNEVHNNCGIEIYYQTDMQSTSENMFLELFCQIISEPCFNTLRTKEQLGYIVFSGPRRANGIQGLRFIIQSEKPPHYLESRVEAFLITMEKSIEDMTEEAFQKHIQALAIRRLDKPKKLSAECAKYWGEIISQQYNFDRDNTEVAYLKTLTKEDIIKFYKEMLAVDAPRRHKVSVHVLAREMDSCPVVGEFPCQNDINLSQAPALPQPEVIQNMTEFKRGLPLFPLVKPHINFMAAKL
As to the kind of experiment: activators of recombinant IDE enzyme, dose response, counter-screen for IDE activator project, biochemical, fluorescence polarization (AID 588681).

A short description of assay [4]: enhancers of respiration in Yfh1-depleted yeast, dose response, Friedreich's ataxia, plus single-dose screen (AID 1465).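 Note: yeast depleted of Yfh1p frataxin homolog grown on glycerol needing respiration; WST-1 tetrazolium dye reduction as measure of cellular dehydrogenase metabolic activity.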 The format is functional.
The target in assay [5] is T1, Insulin-degrading enzyme. Put plainly: activators of endogenous IDE in HEK cells, dose response, cell-based, fluorescence polarization (AID 588439). The class given is functional.
In assay [6] the target is T2, Calpain-2 catalytic subunit (Sus scrofa, UniProt P43367).
T2 sequence (P43367 whole entry): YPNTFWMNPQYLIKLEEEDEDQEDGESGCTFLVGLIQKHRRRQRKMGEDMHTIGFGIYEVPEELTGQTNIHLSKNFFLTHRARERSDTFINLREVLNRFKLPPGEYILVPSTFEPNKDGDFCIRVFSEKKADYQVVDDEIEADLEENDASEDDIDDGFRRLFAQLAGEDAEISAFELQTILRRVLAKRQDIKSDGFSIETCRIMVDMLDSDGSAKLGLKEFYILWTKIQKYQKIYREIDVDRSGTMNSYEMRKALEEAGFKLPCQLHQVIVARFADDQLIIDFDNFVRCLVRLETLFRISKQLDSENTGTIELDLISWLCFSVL
As to the kind of experiment: pig calpain II inhibitor potency, dose response, biochemical, fluorogenic peptide substrate (AID 1420). The class given is functional.

Assay [7] deals with HEK293. Put plainly: HEK cell cytotoxicity by LDH release, dose response, cytotoxicity control for IDE activator project, fluorescence, HEK cells (AID 588440).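 Note: cytotoxicity by LDH release measuring loss of membrane integrity.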 The class given is functional, cell-based. Conditions: Homo sapiens.
For assay [8], the target named is Beta-lactamase (Salmonella choleraesuis (strain SC-B67), UniProt Q5J463).
Sequence of Beta-lactamase (Salmonella choleraesuis (strain SC-B67), UniProt Q5J463) (Q5J463 whole entry): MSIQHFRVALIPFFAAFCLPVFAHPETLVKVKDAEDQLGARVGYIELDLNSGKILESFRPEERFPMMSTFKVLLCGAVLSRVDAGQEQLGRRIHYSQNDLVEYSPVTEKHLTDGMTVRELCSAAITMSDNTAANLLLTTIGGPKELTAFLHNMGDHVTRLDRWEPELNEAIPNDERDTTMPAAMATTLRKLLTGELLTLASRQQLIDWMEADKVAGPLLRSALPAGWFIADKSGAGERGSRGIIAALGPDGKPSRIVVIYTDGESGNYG
The subject of assay [9] is HEK293. As to the kind of experiment: optical interference in Abeta FP readout, dose response, artefact control for IDE activator project, biochemical, fluorescence polarization (AID 588442). The format is functional, cell-based. Conditions: Homo sapiens.
Assay [10] concerns the target Apoptotic protease-activating factor 1 (Homo sapiens, UniProt O14727). The format is functional.
The target of assay [11] is T3, Sentrin-specific protease 7 (Homo sapiens, UniProt Q9BQF6).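 Note: Luminescence-based dose-response confirmation of ultra-high-throughput screening hits, measuring inhibition of SENP7.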
T3 sequence (Q9BQF6 whole entry): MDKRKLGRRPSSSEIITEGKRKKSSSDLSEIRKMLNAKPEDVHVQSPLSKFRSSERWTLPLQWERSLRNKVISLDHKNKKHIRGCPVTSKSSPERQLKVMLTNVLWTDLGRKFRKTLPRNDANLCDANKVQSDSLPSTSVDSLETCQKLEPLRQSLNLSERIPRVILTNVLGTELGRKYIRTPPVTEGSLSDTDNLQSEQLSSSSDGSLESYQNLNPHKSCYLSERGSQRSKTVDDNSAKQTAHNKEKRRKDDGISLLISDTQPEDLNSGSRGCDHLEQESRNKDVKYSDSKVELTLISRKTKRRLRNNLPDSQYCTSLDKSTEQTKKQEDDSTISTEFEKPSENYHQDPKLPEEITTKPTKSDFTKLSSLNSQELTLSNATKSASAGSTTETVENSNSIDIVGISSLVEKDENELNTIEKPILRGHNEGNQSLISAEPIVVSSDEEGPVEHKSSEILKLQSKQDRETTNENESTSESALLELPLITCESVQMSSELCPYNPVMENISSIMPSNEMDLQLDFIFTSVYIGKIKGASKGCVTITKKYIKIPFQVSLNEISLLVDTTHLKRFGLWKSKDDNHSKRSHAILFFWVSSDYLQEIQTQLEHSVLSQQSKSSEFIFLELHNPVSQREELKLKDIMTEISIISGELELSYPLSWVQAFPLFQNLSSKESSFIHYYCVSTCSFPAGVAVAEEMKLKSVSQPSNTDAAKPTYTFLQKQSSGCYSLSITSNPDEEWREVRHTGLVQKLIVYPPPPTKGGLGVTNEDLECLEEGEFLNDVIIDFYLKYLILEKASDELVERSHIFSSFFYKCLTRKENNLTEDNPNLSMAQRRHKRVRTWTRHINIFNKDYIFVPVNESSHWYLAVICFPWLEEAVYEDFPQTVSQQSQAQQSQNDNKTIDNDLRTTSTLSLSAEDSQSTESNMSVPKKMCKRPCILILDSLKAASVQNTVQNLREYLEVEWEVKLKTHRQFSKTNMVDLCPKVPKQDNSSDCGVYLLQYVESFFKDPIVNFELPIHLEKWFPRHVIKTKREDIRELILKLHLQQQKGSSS
The class given is functional.

Assay [12] concerns the target T4, Sentrin-specific protease 6 (Homo sapiens, UniProt Q9GZR1).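 Note: Luminescence-based dose-response confirmatory assay of SENP6 inhibition, following up an ultra-high-throughput screen.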
T4 sequence (Q9GZR1 whole entry): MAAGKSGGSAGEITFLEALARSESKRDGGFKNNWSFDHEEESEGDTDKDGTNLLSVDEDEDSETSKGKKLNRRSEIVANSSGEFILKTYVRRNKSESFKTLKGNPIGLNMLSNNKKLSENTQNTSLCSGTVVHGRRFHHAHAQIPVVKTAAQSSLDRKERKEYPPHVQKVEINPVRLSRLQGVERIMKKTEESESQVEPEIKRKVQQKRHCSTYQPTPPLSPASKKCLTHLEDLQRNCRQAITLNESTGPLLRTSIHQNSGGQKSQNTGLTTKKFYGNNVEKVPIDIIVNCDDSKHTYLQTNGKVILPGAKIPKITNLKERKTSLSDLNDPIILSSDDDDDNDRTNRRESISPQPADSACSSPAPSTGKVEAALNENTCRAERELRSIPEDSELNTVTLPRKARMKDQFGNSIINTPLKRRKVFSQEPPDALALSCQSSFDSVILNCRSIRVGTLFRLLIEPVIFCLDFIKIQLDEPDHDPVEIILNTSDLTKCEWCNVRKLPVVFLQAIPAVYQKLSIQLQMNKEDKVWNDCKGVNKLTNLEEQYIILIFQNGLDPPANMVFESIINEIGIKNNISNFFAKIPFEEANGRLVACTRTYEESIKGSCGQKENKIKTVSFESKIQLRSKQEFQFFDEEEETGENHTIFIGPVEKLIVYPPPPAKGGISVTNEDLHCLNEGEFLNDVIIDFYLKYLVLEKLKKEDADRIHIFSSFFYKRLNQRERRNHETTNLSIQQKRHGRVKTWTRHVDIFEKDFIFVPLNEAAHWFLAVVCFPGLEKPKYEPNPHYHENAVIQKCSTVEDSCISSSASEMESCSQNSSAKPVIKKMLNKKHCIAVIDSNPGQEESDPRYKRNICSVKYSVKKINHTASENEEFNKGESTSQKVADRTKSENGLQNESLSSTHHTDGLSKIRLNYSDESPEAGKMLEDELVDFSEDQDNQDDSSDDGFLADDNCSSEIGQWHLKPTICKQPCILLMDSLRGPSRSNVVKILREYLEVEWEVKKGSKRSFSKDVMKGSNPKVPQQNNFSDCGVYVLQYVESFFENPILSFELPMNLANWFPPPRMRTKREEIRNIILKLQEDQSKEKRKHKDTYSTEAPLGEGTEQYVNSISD
The format is functional.

The target of assay [13] is T5, Sentrin-specific protease 8 (Homo sapiens, UniProt Q96LD8).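 Note: luminescence read-out of SENP8 inhibition, dose-response confirmation following an ultra-high-throughput screen.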
T5 sequence (Q96LD8 whole entry): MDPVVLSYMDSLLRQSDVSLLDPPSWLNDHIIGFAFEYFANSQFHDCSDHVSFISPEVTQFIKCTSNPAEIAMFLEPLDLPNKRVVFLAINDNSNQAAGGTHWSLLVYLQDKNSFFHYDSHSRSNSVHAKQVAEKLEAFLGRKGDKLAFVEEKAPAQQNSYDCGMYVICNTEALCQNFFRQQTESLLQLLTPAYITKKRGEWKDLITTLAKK
The format is functional.

The target of assay [14] is T6, Microphthalmia-associated transcription factor (Homo sapiens, UniProt O75030).
T6 sequence (O75030 whole entry): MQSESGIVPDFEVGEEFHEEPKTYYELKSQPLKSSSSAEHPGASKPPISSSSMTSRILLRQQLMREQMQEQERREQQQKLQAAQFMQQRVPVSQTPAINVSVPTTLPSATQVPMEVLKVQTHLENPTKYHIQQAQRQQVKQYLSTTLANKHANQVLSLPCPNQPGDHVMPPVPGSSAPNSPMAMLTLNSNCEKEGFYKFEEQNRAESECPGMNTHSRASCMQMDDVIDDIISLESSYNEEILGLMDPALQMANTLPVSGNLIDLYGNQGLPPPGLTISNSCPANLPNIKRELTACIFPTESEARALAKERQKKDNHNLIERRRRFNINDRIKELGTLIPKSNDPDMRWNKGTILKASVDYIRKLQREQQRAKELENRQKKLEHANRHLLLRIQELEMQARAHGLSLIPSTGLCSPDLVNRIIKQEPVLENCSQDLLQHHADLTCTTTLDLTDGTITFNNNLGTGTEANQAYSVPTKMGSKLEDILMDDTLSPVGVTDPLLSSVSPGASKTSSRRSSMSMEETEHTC
Put plainly: TRPM1 promoter luciferase signal decrease, dose response, MITF inhibitor project, cell-based, SK-MEL-5, cherry-picked, set 3 (AID 493073).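 Note: SK-MEL-5 melanoma cells with luciferase driven by the MITF target TRPM1 promoter.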 The format is functional.

Assay [15] has as its target T7, Caspase-3 (Homo sapiens, UniProt P42574).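 Note: Dose-response selectivity test against caspase-3 for candidate inhibitors of sentrin-specific proteases (SENPs).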
T7 sequence (P42574 whole entry): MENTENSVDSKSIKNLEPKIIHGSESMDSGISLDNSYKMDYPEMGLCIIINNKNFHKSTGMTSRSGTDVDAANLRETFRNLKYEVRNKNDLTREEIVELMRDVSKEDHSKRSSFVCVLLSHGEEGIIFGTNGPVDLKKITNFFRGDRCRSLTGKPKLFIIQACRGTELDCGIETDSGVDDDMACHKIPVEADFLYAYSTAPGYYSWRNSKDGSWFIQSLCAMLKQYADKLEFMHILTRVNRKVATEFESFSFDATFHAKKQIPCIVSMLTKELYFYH
The format is functional.

Active and inactive are the calls of the source. Some results are limits rather than exact numbers.

Sequence of Beta-lactamase (Pseudomonas aeruginosa, UniProt Q79MP6) (Q79MP6 whole entry): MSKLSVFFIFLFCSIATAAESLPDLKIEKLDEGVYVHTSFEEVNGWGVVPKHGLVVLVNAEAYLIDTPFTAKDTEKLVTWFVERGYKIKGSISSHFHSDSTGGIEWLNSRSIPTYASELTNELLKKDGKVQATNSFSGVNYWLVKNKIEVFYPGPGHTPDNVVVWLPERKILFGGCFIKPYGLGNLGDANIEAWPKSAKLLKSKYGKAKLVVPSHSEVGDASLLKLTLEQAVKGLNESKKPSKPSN
Sequence of Apoptotic protease-activating factor 1 (O14727 whole entry): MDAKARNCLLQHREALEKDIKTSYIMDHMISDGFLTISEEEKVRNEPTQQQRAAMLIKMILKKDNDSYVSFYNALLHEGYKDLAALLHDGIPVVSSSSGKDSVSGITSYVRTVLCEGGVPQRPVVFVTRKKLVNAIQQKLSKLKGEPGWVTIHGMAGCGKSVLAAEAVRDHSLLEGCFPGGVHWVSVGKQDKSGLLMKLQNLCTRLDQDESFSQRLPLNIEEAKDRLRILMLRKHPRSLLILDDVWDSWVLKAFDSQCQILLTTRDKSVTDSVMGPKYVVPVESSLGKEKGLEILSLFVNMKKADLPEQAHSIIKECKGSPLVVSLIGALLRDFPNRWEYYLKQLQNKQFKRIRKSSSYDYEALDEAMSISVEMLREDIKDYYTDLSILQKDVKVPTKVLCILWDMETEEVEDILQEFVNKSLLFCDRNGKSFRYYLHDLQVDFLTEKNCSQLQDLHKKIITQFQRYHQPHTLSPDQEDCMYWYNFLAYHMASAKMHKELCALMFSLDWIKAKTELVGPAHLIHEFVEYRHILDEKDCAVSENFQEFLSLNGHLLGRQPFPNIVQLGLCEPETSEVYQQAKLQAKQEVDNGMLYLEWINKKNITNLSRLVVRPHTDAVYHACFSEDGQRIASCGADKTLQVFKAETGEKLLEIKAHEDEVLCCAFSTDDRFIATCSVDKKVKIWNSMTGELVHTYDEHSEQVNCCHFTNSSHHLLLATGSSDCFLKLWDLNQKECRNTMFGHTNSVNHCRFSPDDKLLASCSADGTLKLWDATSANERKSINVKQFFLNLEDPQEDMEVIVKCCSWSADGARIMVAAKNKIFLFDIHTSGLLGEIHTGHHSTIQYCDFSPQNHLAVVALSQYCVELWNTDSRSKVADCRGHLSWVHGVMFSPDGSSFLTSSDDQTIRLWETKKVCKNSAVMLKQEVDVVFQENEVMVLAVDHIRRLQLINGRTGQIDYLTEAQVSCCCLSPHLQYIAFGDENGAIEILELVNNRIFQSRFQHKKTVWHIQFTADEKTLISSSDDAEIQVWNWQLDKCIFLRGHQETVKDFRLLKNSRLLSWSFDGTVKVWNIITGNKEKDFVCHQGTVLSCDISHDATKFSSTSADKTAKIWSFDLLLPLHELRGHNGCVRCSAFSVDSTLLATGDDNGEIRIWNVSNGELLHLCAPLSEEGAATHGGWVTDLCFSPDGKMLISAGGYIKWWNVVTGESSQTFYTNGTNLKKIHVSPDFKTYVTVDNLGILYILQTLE

In the case of `CCN1CCN(C2=CC3=CC(=C(C#N)C#N)CCC3CC2)CC1` (centres undefined), the IC50 in [1] is 4.22 µM (active); in assay [2], 1.67 µM (active); in [6], 30.6 µM (not active); in assay [7], > 89.2 µM (inactive); in [8], 3.08 µM (active). Moreover, the EC50 is > 54.7 µM (inactive) in assay [3], > 100 µM (active) in assay [4], > 54.7 µM (inactive) in [5] and > 54.7 µM (inactive) in assay [9].

On to `CC(=O)N1CCc2cc(S(=O)(=O)NCCC(=O)N3CCN(Cc4ccccc4)CC3)ccc21`, for which the EC50 in [3], in [5] and in assay [9] was > 54.7 µM (inactive) throughout. Moreover, the IC50 in [7] was > 89.2 µM (inactive).

For the molecule `CC(=O)NC1=C(N(C)C2CCS(=O)(=O)C2)C(=O)c2ccccc2C1=O` (centres undefined), the IC50 in assay [10] was 22 µM (active); in assay [11], 13 µM (active); in assay [12] it was 5.25 µM (active); in assay [13] it was 13.4 µM (active); in [15] it was 17 µM (active). Besides, the AC50 in assay [14] was 21.2 µM (active).
